Experimental data taken from publication PMC10574475, “Development and Validation of a UHPLC–MS/MS Method for the Quantification of a Novel PYGB Inhibitor in Plasma: Application to Pharmacokinetic Studies” (Molecules, 2023).
“Also recorded” adds a separate entry of the source. Read-outs that look alike come from different tables or passages of the source.

What was measured:
[1] = Plasma pharmacokinetics after intravenous administration (UHPLC–MS/MS); type: in vivo, SD rats; conditions: rat plasma; for AUC(0-inf) / AUC(0-t) / Cmax / Vd / clearance / half-life: both sexes, SD
Protocol: 50 μL of the plasma to be tested was aspirated precisely and placed in a 1.5 mL centrifuge tube. Then 5 μL of internal standard working solution and 150 μL of methanol were added sequentially to the centrifuge tube, and the tube was vortexed for 60 s and centrifuged at 6147× g for 10 min. Finally, 100 μL of supernatant was taken and added to the injection vial for quantitative analysis by UHPLC–MS/MS.
(§1) Liquid chromatography conditions. UHPLC–MS/MS analyses were performed on an Agilent 1260 ultra-high performance liquid chromatograph (Agilent Technologies Co., Ltd., Santa Clara, CA, USA) and a QTRAP 5500 triple quadrupole tandem mass spectrometer (AB Sciex Pte. Ltd., Framingham, MA, USA). An ACQUITY UPLC BEH C18 column (2.1 × 50 mm, 1.7 µm) was used at […] with a flow rate of 0.3 mL/min and an injection volume of 2 µL. The analysis time was 5 min using an isocratic elution procedure of methanol and water (4:1, v/v).
In the plasma pharmacokinetic study, 30 healthy SD rats (half male and half female) were selected and randomly divided into 3 groups of 10 rats each. Three groups of SD rats were injected with a single dose of compound 1 (0.8 mg/kg, 1.6 mg/kg, 3.2 mg/kg) by tail vein, respectively. At 0.084, 0.25, 1, 2, 4, 6, 8, 12, 24 h after administration, 0.5 mL of blood was collected from the fundus venosus in heparin-anticoagulated tubes, and the plasma was separated by centrifugation at 6149× g for 10 min, and then placed in 1.5 mL Eppendorf tubes and stored in the refrigerator at −80 °C for measurement.
(§2) The data was processed using Origin 2021 to plot the drug concentration–time curve in plasma, and DAS 2.0 software was used to calculate the pharmacokinetic parameters by the […] statistical moment method, and the results of the experiments were expressed as mean ± standard deviation. Differences between groups were analyzed using SPSS 20.0, with p < 0.05 indicating statistical significance.

[2] = Brain tissue distribution after intravenous administration; type: in vivo, SD rats; conditions: rat; for brain tissue concentration: after injection
Protocol: Brain tissue homogenate samples for analysis were prepared by adding 9 volumes of homogenate solution (MeOH/15 mMPBS (1: 2, v/v)) to one volume of brain homogenate and diluting it 10-fold. Firstly, an aliquot of 40 μL of the brain homogenate sample to be tested (diluted sample), calibration standards, QC and diluted QC, a zero sample (with internal standard) and a blank sample (without internal standard) were added to the 96-well plate. Then, each sample (except blank samples) was quenched with 400 μL of IS1 (blank samples were quenched with 400 μL of acetonitrile), and the mixture was vortexed at 800 rpm for 10 min, followed by centrifugation at 3220× g at 4 °C for 15 min. Finally, a 50 μL aliquot of the supernatant was transferred to another clean 96-well plate and centrifuged at 3220× g for 15 min at 4 °C, then injected directly into the sample for UHPLC–MS/MS analysis.
as §1
In the preliminary brain tissue distribution study, 18 healthy male SD rats were injected with 3.2 mg/kg of compound 1 intravenously into the tail, and the animals were euthanized by CO2 inhalation at 0.25, 2 and 8 h after the administration of compound 1, respectively. Blood and brain tissue were then collected separately from each animal. Brain tissue was homogenized on wet ice using homogenizing buffer (MeOH/15 mM PBS = 1/2) at a ratio of 1:9 (1 g tissue to 9 mL buffer). The tissue homogenate was divided into two parts, 0.8 mL was used for analysis and the rest was discarded.
as §2

[3] = Stability of compound 1 in rat plasma under different storage conditions; type: in vitro ADME
Protocol: Stability was assessed under the four conditions (storage at room temperature for 12 h, […] for 24 h, refrigerator storage at −20 °C for 10 days, and freeze-thawing at −80 °C to 25 °C for 3 cycles) using the QC working solution (2.5, 800 ng/mL), and six preparations were made in parallel for each concentration. The stability of compound 1 in rat plasma was evaluated by calculating the peak area ratio (compound 1/IS) in plasma sample.

PYGB = test system: PYGB; design: method as in PMID 36234871, PMID 36838691, PMID 36108587; conditions: previous studies; read-out: IC50 of PYGB inhibition; cited from earlier work
[4] = male, Sprague-Dawley (SD), brain tissue, 3.2 mg/kg iv
[5] = 3.2 mg/kg iv, 0.25 h, 3.2 mg/kg

CCCC1(CCC)NC(=O)c2cc(NC(=O)c3cc4cc(Cl)ccc4[nH]3)ccc2O1 [compound 1, 5-chloro-N-(4-oxo-2,2-dipropyl-3,4-dihydro-2H-benzo[e][1,3]oxazin-6-yl)-1H-indole-2-carboxamide]
AUC(0-inf) ([1]; 0.8 mg/kg iv): 900 ± 441 ng·h/mL | AUC(0-t) ([1]; 0.8 mg/kg iv): 895 ± 440 ng·h/mL | Cmax ([1]; 0.8 mg/kg iv): 1180 ± 361 ng/mL | Vd ([1]; 0.8 mg/kg iv): 6.43 ± 3.48 L/kg | clearance ([1]; 0.8 mg/kg iv): 16.7 mL/min/kg | half-life ([1]; 0.8 mg/kg iv): 4.56 ± 2.17 h | AUC(0-inf) ([1]; 1.6 mg/kg iv): 1610 ± 371 ng·h/mL | AUC(0-t) ([1]; 1.6 mg/kg iv): 1600 ± 372 ng·h/mL | Cmax ([1]; 1.6 mg/kg iv): 2030 ± 289 ng/mL | Vd ([1]; 1.6 mg/kg iv): 7.51 ± 6.15 L/kg | clearance ([1]; 1.6 mg/kg iv): 17.3 mL/min/kg | half-life ([1]; 1.6 mg/kg iv): 4.8 ± 3.22 h | AUC(0-inf) ([1]; 3.2 mg/kg iv): 3630 ± 973 ng·h/mL | AUC(0-t) ([1]; 3.2 mg/kg iv): 3630 ± 970 ng·h/mL | Cmax ([1]; 3.2 mg/kg iv): 3710 ± 683 ng/mL | Vd ([1]; 3.2 mg/kg iv): 4.14 ± 1.23 L/kg | clearance ([1]; 3.2 mg/kg iv): 15.7 mL/min/kg | half-life ([1]; 3.2 mg/kg iv): 3.08 ± 0.58 h | linearity of pharmacokinetics ([1]; iv, dose range 0.8–3.2 mg/kg): linear pharmacokinetic characteristics; also recorded: linear pharmacokinetic profile | AUC0–∞ ([2]; brain tissue, 3.2 mg/kg iv): 668 ng·h/g | concentration at 0.25 h ([2]; male, SD, brain, iv, 3.2 mg/kg, 3.2 mg/kg iv, 0.25 h, read-out: CBrain (concentration in brain tissue)): 440 ± 19.1 ng/g | concentration at 2 h ([2]; male, SD, brain, iv, 3.2 mg/kg, 3.2 mg/kg iv, 2 h, read-out: CBrain (concentration in brain tissue)): 111 ± 23.9 ng/g | concentration at 8 h ([2]; male, SD, brain, iv, 3.2 mg/kg, 3.2 mg/kg iv, 8 h, read-out: CBrain (concentration in brain tissue)): 4.17 ± 7.22 ng/g | Kp at 0.25 h ([2]; male, SD, brain/plasma, iv, 3.2 mg/kg, 3.2 mg/kg iv, 0.25 h, read-out: CBrain/CPlasma ratio): 0.112 ± 0.0185 | Kp at 2 h ([2]; male, SD, brain/plasma, iv, 3.2 mg/kg, 3.2 mg/kg iv, 2 h, read-out: CBrain/CPlasma ratio): 0.112 ± 0.0292 | Kp at 8 h ([2]; male, SD, brain/plasma, iv, 3.2 mg/kg, 3.2 mg/kg iv, 8 h, read-out: CBrain/CPlasma ratio): 0.09 ± 0.148 | concentration at 0.25 h ([2]; male, SD, plasma, iv, 3.2 mg/kg, 3.2 mg/kg iv, 0.25 h, read-out: CPlasma (concentration in plasma)): 4020 ± 677 ng/g | concentration at 2 h ([2]; male, SD, plasma, iv, 3.2 mg/kg, 3.2 mg/kg iv, 2 h, read-out: CPlasma (concentration in plasma)): 1020 ± 275 ng/g | concentration at 8 h ([2]; male, SD, plasma, iv, 3.2 mg/kg, 3.2 mg/kg iv, 8 h, read-out: CPlasma (concentration in plasma)): 32.9 ± 14.5 ng/g | Cmax ([2]; male, SD, plasma, 3.2 mg/kg iv): 4890 ng/g | Tmax ([2]; male, SD, plasma, 3.2 mg/kg iv): 0 h | half-life ([2]; male, SD, plasma, 3.2 mg/kg iv): 1.14 h | Cmax [2, 4]: 440 ng/g | MRT [2, 4]: 1.65 h | Tmax [2, 4]: 0.25 h | half-life [2, 4]: 1.18 h | MRT ([2]; male, Sprague-Dawley (SD), plasma, 3.2 mg/kg iv): 1.47 h | AUC0–∞ ([2]; plasma, 3.2 mg/kg iv): 6659 ng·h/g | CBrain (concentration in brain tissue) [2, 5]: 440.0 ± 19.1 ng/g | CBrain/CPlasma ratio [2, 5]: 0.11 ± 0.019 | CBrain (concentration in brain tissue) ([2]; 3.2 mg/kg iv, 2 h, 3.2 mg/kg): 111.0 ± 23.9 ng/g | CBrain/CPlasma ratio ([2]; 3.2 mg/kg iv, 2 h, 3.2 mg/kg): 0.11 ± 0.029 | CBrain (concentration in brain tissue) ([2]; 3.2 mg/kg iv, 8 h, 3.2 mg/kg): 4.2 ± 7.2 ng/g | brain tissue concentration ([2]; 0.25 h (abstract)): 440 ± 19.1 ng/g | brain tissue concentration ([2]; 2 h (abstract)): 111 ± 23.9 ng/g | crossing of the blood–brain barrier ([2]; iv): able to cross the blood–brain barrier; also recorded: could quickly cross the blood–brain barrier | Stability, RE ([3]; 2.5 ng/mL, auto-sampler (24 h), 4 °C): 13.81% | Stability, RE ([3]; 2.5 ng/mL, room temperature (12 h)): 0.50% | Stability, RE ([3]; 2.5 ng/mL, storage at −20 °C (10 days)): 12.30% | Stability, RE ([3]; 2.5 ng/mL, thaw and freeze (from −80 °C to 25 °C), 3 cycles): 12.40% | Stability, RE ([3]; 800 ng/mL, auto-sampler (24 h), 4 °C): −3.20% | Stability, RE ([3]; 800 ng/mL, room temperature (12 h)): 1.03% | Stability, RE ([3]; 800 ng/mL, storage at −20 °C (10 days)): −0.65% | Stability, RE ([3]; 800 ng/mL, thaw and freeze (from −80 °C to 25 °C), 3 cycles): −3.64% | IC50 (PYGB): 90.3 nM
